Values of other authors, collected in patent publication US6653469B1, “Antibiotic purification method” (Murty Pharmaceuticals, Inc., priority 2002, dated 2003).

Experiments:
[1] = not given; remark: listed apart in the source
[2] = system: heat shock protein 90 (Hsp90)

solubility in acetone, benzene, and ethyl acetate (acetone, benzene, ethyl acetate)	solubility in alcohols and aliphatic chlorinated solvents such as chloroform (alcohols, chloroform)	solubility in water (water)	stability to acid, base, or heat ([1]; acid, base, or heat in the presence of oxygen)	photolytic stability ([1]; aqueous and nonaqueous solutions)	Structure (SMILES)	binding to Hsp90 and effect on Hsp90 function [2]
less soluble	soluble	only slightly soluble	decompose easily	undergoes photolytic degradation	COC1=C2C[C@@H](C)C[C@H](OC)[C@H](O)[C@@H](C)/C=C(\C)[C@H](OC(N)=O)[C@@H](OC)/C=C\C=C(/C)C(=O)NC(=CC1=O)C2=O [geldanamycin]	
					CO[C@H]1[C@@H](OC)C[C@H](C)[C@@H](OC)C2=CC(=O)C=C(NC(=O)/C(C)=C/C=C\[C@H](OC)[C@@H](OC(N)=O)/C(C)=C/[C@@H]1C)C2=O [herbimycin A]	bind specifically to Hsp90
					COC1CC(C)C(OC)c2cc(O)cc(c2O)NC(=O)/C(C)=C\C=C/C(C)C(OC(N)=O)/C(C)=C\C(C)C1OC (stereo not shown) [macbecin II]	bind specifically to Hsp90
